Assay results reported in ChEMBL document CHEMBL1201862, “PubChem BioAssay data set” (2004).
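Growth conditions: 96-well plates. Treatment: test compound, 48 hours, 5 concentrations. Analysis: linear interpolation between bracketing concentrations; unreached endpoints set to highest concentration. Here, GI50 denotes the concentration required for 50% inhibition of growth.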 Activity calls are given as the source filed them. Cut-off read from the data, not from the text of the source: active = GI50 up to about 1.1 µM and inactive = higher.

Legend:
Test in all cases: NCI-60 cell line screen, 48 h
UO-31 = test system: UO-31
COLO 205 = test system: COLO 205
SN12C = test system: SN12C
DMS-273 = test system: DMS-273
EKVX = test system: EKVX
A498 = test system: A498
KM12 = test system: KM12
SK-MEL-5 = test system: SK-MEL-5
HOP-62 = test system: HOP-62
KM-20L2 = test system: KM-20L2
TK-10 = test system: TK-10
SK-OV-3 = test system: SK-OV-3
SNB-19 = test system: SNB-19
HL-60 = test system: HL-60
M19-MEL = test system: M19-MEL
Malme-3M = test system: Malme-3M
ACHN = test system: ACHN
NCI-H522 = test system: NCI-H522
RXF 393 = test system: RXF 393
DLD-1 = test system: DLD-1
M14 = test system: M14
SF-295 = test system: SF-295
SK-MEL-28 = test system: SK-MEL-28
XF498 = test system: XF498
NCI-H23 = test system: NCI-H23
CCRF-CEM = test system: CCRF-CEM
786-0 = test system: 786-0
HT-29 = test system: HT-29
SNB-75 = test system: SNB-75
SR = test system: SR
HOP-18 = test system: HOP-18
SW-620 = test system: SW-620
SK-MEL-2 = test system: SK-MEL-2
U-251 = test system: U-251
UACC-62 = test system: UACC-62
LXFL 529 = test system: LXFL 529
OVCAR-4 = test system: OVCAR-4
RPMI-8226 = test system: RPMI-8226
UACC-257 = test system: UACC-257
NCI-H226 = test system: NCI-H226
MOLT-4 = test system: MOLT-4
SF-539 = test system: SF-539
HCT-116 = test system: HCT-116
OVCAR-3 = test system: OVCAR-3
OVCAR-8 = test system: OVCAR-8
DMS-114 = test system: DMS-114
A549 = test system: A549
OVCAR-5 = test system: OVCAR-5
HCC 2998 = test system: HCC 2998
IGROV-1 = test system: IGROV-1
SNB-78 = test system: SNB-78
HCT-15 = test system: HCT-15
NCI-H460 = test system: NCI-H460
K562 = test system: K562
LOX IMVI = test system: LOX IMVI
NCI/ADR-RES = test system: NCI/ADR-RES
HOP-92 = test system: HOP-92
MCF7 = test system: MCF7
CAKI-1 = test system: CAKI-1
SF-268 = test system: SF-268

[O-][Cl+3]([O-])([O-])[O-].c1ccc(C[P+]2(c3ccccc3)CCCCC2)cc1
GI50 (UO-31): > 100 µM (inactive)
GI50 (COLO 205): 34 µM (inactive)
GI50 (SN12C): > 100 µM (inactive)
GI50 (DMS-273): 79.3 µM (inactive)
GI50 (EKVX): > 100 µM (inactive)
GI50 (A498): > 100 µM (inactive)
GI50 (KM12): > 100 µM (inactive)
GI50 (SK-MEL-5): 28.7 µM (inactive)
GI50 (HOP-62): > 100 µM (inactive)
GI50 (KM-20L2): > 100 µM (inactive)
GI50 (TK-10): > 100 µM (inactive)
GI50 (SK-OV-3): > 100 µM (inactive)
GI50 (SNB-19): > 100 µM (inactive)
GI50 (HL-60): 29.4 µM (inactive)
GI50 (M19-MEL): 28.8 µM (inactive)
GI50 (Malme-3M): > 100 µM (inactive)
GI50 (ACHN): > 100 µM (inactive)
GI50 (NCI-H522): 34.5 µM (inactive)
GI50 (RXF 393): > 100 µM (inactive)
GI50 (DLD-1): > 100 µM (inactive)
GI50 (M14): > 100 µM (inactive)
GI50 (SF-295): > 100 µM (inactive)
GI50 (SK-MEL-28): > 100 µM (inactive)
GI50 (XF498): 33.6 µM (inactive)
GI50 (NCI-H23): > 100 µM (inactive)
GI50 (CCRF-CEM): > 100 µM (inactive)
GI50 (786-0): > 100 µM (inactive)
GI50 (HT-29): 72.8 µM (inactive)
GI50 (SNB-75): 88.9 µM (inactive)
GI50 (SR): 86.7 µM (inactive)
GI50 (HOP-18): > 100 µM (inactive)
GI50 (SW-620): > 100 µM (inactive)
GI50 (SK-MEL-2): 95.5 µM (inactive)
GI50 (U-251): 38.4 µM (inactive)
GI50 (UACC-62): 61.7 µM (inactive)
GI50 (LXFL 529): 38.3 µM (inactive)
GI50 (OVCAR-4): > 100 µM (inactive)
GI50 (RPMI-8226): 34.7 µM (inactive)
GI50 (UACC-257): 34.4 µM (inactive)
GI50 (NCI-H226): > 100 µM (inactive)
GI50 (MOLT-4): > 100 µM (inactive)
GI50 (SF-539): > 100 µM (inactive)
GI50 (HCT-116): 23.7 µM (inactive)
GI50 (OVCAR-3): 73.1 µM (inactive)
GI50 (OVCAR-8): > 100 µM (inactive)
GI50 (DMS-114): 48.5 µM (inactive)
GI50 (A549): > 100 µM (inactive)
GI50 (OVCAR-5): > 100 µM (inactive)
GI50 (HCC 2998): 70.8 µM (inactive)
GI50 (IGROV-1): > 100 µM (inactive)
GI50 (SNB-78): > 100 µM (inactive)
GI50 (HCT-15): > 100 µM
GI50 (NCI-H460): > 100 µM (inactive)
GI50 (K562): > 100 µM (inactive)
GI50 (LOX IMVI): 85.1 µM (inactive)

CC[C@@]1(O)C[C@H](OC2CC(N(C)C)C(O)C(C)O2)c2c(cc3c(c2O)C(=O)c2c(O)ccc(O)c2C3=O)[C@H]1C(=O)OC (some centres undefined)
GI50 (UO-31): 0.158 µM (active)
GI50 (COLO 205): 0.0467 µM (active)
GI50 (SN12C): 0.0377 µM (active)
GI50 (DMS-273): 0.0213 µM (active)
GI50 (EKVX): 0.135 µM (active)
GI50 (A498): 0.0448 µM (active)
GI50 (KM12): 0.0635 µM (active)
GI50 (SK-MEL-5): 0.0938 µM (active)
GI50 (HOP-62): 0.107 µM (active)
GI50 (KM-20L2): 0.0702 µM (active)
GI50 (NCI/ADR-RES): 0.0526 µM (active)
GI50 (SK-OV-3): 0.236 µM (active)
GI50 (SNB-19): 0.0991 µM (active)
GI50 (HL-60): 0.0457 µM (active)
GI50 (M19-MEL): 0.0461 µM (active)
GI50 (Malme-3M): 0.0807 µM (active)
GI50 (NCI-H522): 0.0521 µM (active)
GI50 (RXF 393): 0.0366 µM (active)
GI50 (DLD-1): 0.0514 µM (active)
GI50 (SF-295): 0.032 µM (active)
GI50 (SK-MEL-28): 0.148 µM (active)
GI50 (HOP-92): 0.256 µM (active)
GI50 (XF498): 0.106 µM (active)
GI50 (NCI-H23): 0.11 µM (active)
GI50 (CCRF-CEM): 0.0242 µM (active)
GI50 (HT-29): 0.0388 µM (active)
GI50 (SNB-75): 0.0826 µM (active)
GI50 (HOP-18): 0.212 µM (active)
GI50 (SW-620): 0.0267 µM (active)
GI50 (SK-MEL-2): 0.101 µM (active)
GI50 (U-251): 0.0405 µM (active)
GI50 (UACC-62): 0.0451 µM (active)
GI50 (OVCAR-4): 0.029 µM (active)
GI50 (RPMI-8226): 0.0364 µM (active)
GI50 (MCF7): 0.0885 µM (active)
GI50 (UACC-257): 0.0863 µM (active)
GI50 (NCI-H226): 0.108 µM (active)
GI50 (MOLT-4): 0.0252 µM (active)
GI50 (SF-539): 0.0895 µM (active)
GI50 (HCT-116): 0.0229 µM (active)
GI50 (OVCAR-3): 0.149 µM (active)
GI50 (OVCAR-8): 0.0239 µM (active)
GI50 (DMS-114): 0.119 µM (active)
GI50 (A549): 0.0365 µM (active)
GI50 (OVCAR-5): 0.141 µM (active)
GI50 (HCC 2998): 0.162 µM (active)
GI50 (CAKI-1): 0.027 µM (active)
GI50 (IGROV-1): 0.0468 µM (active)
GI50 (SNB-78): 0.153 µM (active)
GI50 (HCT-15): 0.0452 µM
GI50 (SF-268): 0.0536 µM (active)
GI50 (NCI-H460): 0.0221 µM (active)
GI50 (K562): 0.0292 µM (active)
GI50 (LOX IMVI): 0.0229 µM (active)
